This is an account of results in patent US20130210907A1, “METHOD FOR PREVENTING OR TREATING ENTEROCHROMAFFIN CELL HYPERPLASIA-RELATED DISEASES BY QUERCETIN ADMINISTRATION” (HONG KONG BAPTIST UNIVERSITY, priority 2012, published 2013).

In experiment [1] the test system is PI-IBS rats. Description: EMG recording: visceral motor response to graded colorectal distension (CRD). It is filed as in vivo, rat. Here is the method:
Sprague-Dawley male rats (Laboratory Animal Services Centre, The Chinese University of Hong Kong) aged 6 weeks with body weight around 220 g are used to develop PI-IBS model. Briefly, rats are fasted for 24 h, and deeply anesthetized with chloral hydrate (350 mg.kg^−1, i.p.). After induction of colitis by 2,4,6-trinitrobenzenesulfonic acid solution (TNBS, 5 mg/0.8 ml/rat, in 50% ethanol, 8 cm from anus) administration, the rats are allowed to recover for at least 4 weeks before use. The control rats are similarly administered with 0.8 ml saline instead of TNBS. Only the rats that have completely recovered from the initial inflammation and acquired visceral hypersensitivity are used as the PI-IBS rats.
6 groups of 12 rats are tested. Normal rats (Group 1) are treated with water. PI-IBS rats are randomly divided into 5 groups and orally treated with water (Group 2), Doxantrazole (mast cell stabilizer, 30 mg/kg/d, Group 3), and Quercetin (Group 4-6) at the dose of 5, 10, and 20 mg/kg/d, respectively. After 2 weeks daily drug administration, 5 rats in each group are used to measure pain threshold pressure by abdominal withdrawal reflex (AWR) test, and the remaining […] is used for electromyography (EMG) recording.
AWR test is performed as previously described in Al-Chaer E D, Kawasaki M, Pasricha P J. A new model of chronic visceral hypersensitivity in adult rats induced by colon irritation during postnatal development. Gastroenterology. 2000 November; 119(5):1276-85. Briefly, rats are lightly anesthetized with ether; a latex balloon is inserted into the descending colon. Rats are then allowed to recover for about 1 h. The tube of the balloon is connected via a Y-connector to a sphygmomanometer and colorectal distension is applied in increments of 5 mmHg until a visible contraction of the abdominal wall is observed by an investigator blinded to the treatment. The pain threshold pressure is defined as the intensity of colorectal distension (CRD) that elicited an observable AWR, i.e. a sudden and persistent abdominal muscle contraction with abdomen lift off the platform. The pain threshold pressure of all groups is recorded and repeated five times with intervals of at least 5 minutes for recovery. EMG recording are conducted as previously described in Tammpere A, Brusberg M, Axenborg J, Hirsch I, Larsson H, Lindstrom E. Evaluation of pseudo-affective responses to noxious colorectal distension in rats by manometric recordings. Pain. 2005 August; 116(3):220-6 and Li Z, Zhang X J, Xu H X, Sung J J, Bian Z X. Intracolonical administration of protease-activated receptor-2 agonists produced visceral hyperalgesia by up-regulating serotonin in the colon of rats. Eur J. Pharmacol. 2009 Mar. 15; 606(1-3):199-204. Firstly, a surgical operation is made to implant the electrodes into the left external abdominal oblique muscles 7 days before EMG recording. After the last drug administration, a flexible latex balloon is inserted into the rat descending colon, and the rats are allowed to accommodate for 1 h. CRD is initiated, and the EMG signal is amplified and filtered by Power Lab System. Graded colorectal distension (20, 40, 60, and 80 mmHg; 20 s duration; 2 min inter-stimulus interval) is carried out for total three cycles to each rat. The changes of area under the curve (AUC) are calculated using that during 20 s distension period over the 20 s baseline.

Experiment [2] deals with PI-IBS rats. Description: Electron microscopy of EC cell secretory granules after CRD. Type of experiment: in vivo, rat. The conditions noted are these: median dose. Here is the method:
For electron microscopy evaluation, the colon tissues are collected from the rats treated with AWR test so as to investigate the feature of mechanical stimulus-induced 5-HT release. Colon segment is fixed for 24 h at 4° C. in fixative containing 4% paraformaldehyde and 0.2% picric acid in 0.1M PB, then washed and embedded in gelatin. Thin sections are cut and picked up on 200-mesh grids. The sections are stained with uranyl acetate and lead citrate. Examination and photography of sections are carried out using Philips CM 10 transmission electron microscope (Philips Scientifics, Netherlands). At the ultra-structural level, EC cell are distinguished from other enteroendocrine cells by the pleomorphic nature of their secretory granules. The EC cells in which there are many clear secretory granules without cores and granules with eccentric cores are considered as the activated one with excessive 5-HT release.

In another experiment the test system is normal rats. As to the kind of experiment: Colonic 5-HT content in normal rats. It is filed as in vivo, rat. Conditions: 10 mg/kg i.g., 14 days. Here is the method: 5-HT content in the colon tissue is assayed based on our previously reported procedure in Qi S D, Tian S L, Xu H X, Sung J J, Bian Z X. Quantification of luminally released serotonin in rat proximal colon by capillary electrophoresis with laser-induced fluorescence detection. Anal Bioanal Chem. 2009 April; 393(8):2059-66. Briefly, the colon segment is homogenized in 15% iced trichloroacetic acid; for 2 min and stored at 4° C. for 2 h. After centrifuge at 10,000 G for 15 min, the supernatant of each sample is filtered using 0.22 μm filters and extracted with diethyl ether for five times to remove the trichloroacetic acid. The prepared samples are added to derivatization solution (150 mM sodium tetraborate, 25% acetonitrile, 2 mM CFSE) and incubated for […] in dark at room temperature. The 5-HT content is analyzed by capillary electrophoresis with laser-induced fluorescence detection and expressed as nanogram per milligram (wet weight of tissue).
To identify whether the effects of Quercerin in PI-IBS rats are specific, pain threshold pressure, colonic EC cell number and 5-HT content are further evaluated in normal rats treated with Quercetin. […] After the final drug administration, pain threshold pressure, colonic EC cell density and 5-HT content are evaluated and the methods used here are as same as that shown in above experiments.

In the next experiment the test system is cyclin B1. Description: Western blot of cyclin B1 in QGP-1 cells. It is filed as cell-based, human. Conditions: QGP-1, 50-100 μM, 24 h. How it is done:
(§1) After drug treatment, the cells are lysed and centrifuged to collect the protein extract After determination of protein content, the samples protein are denatured at 100° C. for 5 min Proteins are separated by 10-12% SDS-PAGE and transferred to PVDF membranes (Bio-Rad, CA). After blocking with 5% nonfat milk for 1 h at room temperature, the membranes are incubated overnight at 4° C. with primary antibodies (mouse anti-cyclin BE 1:500, Abcam; goat anti-p-Cdc2:1:500, Santa Cruz; mouse anti-p21: 1:500, BD Bioscience). After washing three times in TBST, the membranes where incubated with the appropriate secondary antibodies (1:2000, Invitrogen) for 1 h at room temperature. The immunoreaction is detected using ECL Western blotting kit (ECL, Amersham, UK). Bands are visualized on Biomax X-ray film, and optical density of each band is semi-quantified by software (Image J.NIH). In order to adjust for any variations in loading, all detected protein bands are normalized to β-actin levels.
On the technique in general: A western blot detects proteins with antibodies after separation by electrophoresis.

A further experiment relates to p21. Description: Western blot of p21 in QGP-1 cells. Type of experiment: cell-based, human. The conditions noted are these: QGP-1, 50-100 nM (so in the source), 24 h. Here is the method: as §1

Molecules are shown by their SMILES.

As for `O=c1c(O)c(-c2ccc(O)c(O)c2)oc2cc(O)cc(O)c12` [Quercetin, 2-(3,4-dihydroxyphenyl)-3,5,7-trihydroxy-4H-chromen-4-one], the “AUC value under graded distension pressures (EMG)” value in the experiment with PI-IBS rats [1] (5 mg/kg i.g., 20 mmHg) stood at 161.22 ± 41.53; with PI-IBS rats [1] (5 mg/kg i.g., 40 mmHg), 463.55 ± 12.42; in the experiment with PI-IBS rats [1] (5 mg/kg i.g., 60 mmHg), 586.42 ± 56.68; with PI-IBS rats [1] (5 mg/kg i.g., 80 mmHg) it was 906.84 ± 41.08; in the experiment with PI-IBS rats [1] (10 mg/kg i.g., 20 mmHg) it was 124.61 ± 67.68; in the experiment on PI-IBS rats [1] (10 mg/kg i.g., 40 mmHg) it was 386.85 ± 65.68. For the same compound, the “AUC value under graded distension pressures (EMG)” value with PI-IBS rats [1] (10 mg/kg i.g., 60 mmHg) came to 530.98 ± 21.08; in the experiment on PI-IBS rats [1] (10 mg/kg i.g., 80 mmHg), 842.34 ± 62.92; with PI-IBS rats [1] (20 mg/kg i.g., 20 mmHg), 88.28 ± 43.43; in the experiment on PI-IBS rats [1] (20 mg/kg i.g., 40 mmHg), 319.78 ± 118.03; with PI-IBS rats [1] (20 mg/kg i.g., 60 mmHg) it was 470.73 ± 173.52; in the experiment with PI-IBS rats [1] (20 mg/kg i.g., 80 mmHg), 725.28 ± 192.44. In addition, the “Secretory granules of EC cells compared to PI-IBS rats (electron micrographs)” value in the experiment with PI-IBS rats [2] is “became denser”. Also, in the experiment with normal rats, the 5-HT content was 4.06 ± 0.48 ng/mg. In addition, in the experiment with cyclin B1, the “Protein level of cyclin B1” value is “significantly decrease”. Besides, the “Protein level of p21” value in the experiment on p21 is listed as “significantly increased”.
